Experimental data reported in ChEMBL document CHEMBL4229568, “Discovery of natural flavonoids as activators of Nrf2-mediated defense system: Structure-activity relationship and inhibition of intracellular oxidative insults” (Bioorg Med Chem, 2018).
Calls of active or inactive are those of the source. The rule behind the calls is not given here.

Experiments:
Assay type in all cases: cell-based
[1] = molecular target: T1, Nuclear factor erythroid 2-related factor 2 (Mus musculus) (UniProt Q60795); assay: Activation of Nrf2 in mouse Heap1c1c7 cells assessed as induction of NAD(P)H:quinone reductase activity at 25 uM relative to control
T1 sequence (whole entry): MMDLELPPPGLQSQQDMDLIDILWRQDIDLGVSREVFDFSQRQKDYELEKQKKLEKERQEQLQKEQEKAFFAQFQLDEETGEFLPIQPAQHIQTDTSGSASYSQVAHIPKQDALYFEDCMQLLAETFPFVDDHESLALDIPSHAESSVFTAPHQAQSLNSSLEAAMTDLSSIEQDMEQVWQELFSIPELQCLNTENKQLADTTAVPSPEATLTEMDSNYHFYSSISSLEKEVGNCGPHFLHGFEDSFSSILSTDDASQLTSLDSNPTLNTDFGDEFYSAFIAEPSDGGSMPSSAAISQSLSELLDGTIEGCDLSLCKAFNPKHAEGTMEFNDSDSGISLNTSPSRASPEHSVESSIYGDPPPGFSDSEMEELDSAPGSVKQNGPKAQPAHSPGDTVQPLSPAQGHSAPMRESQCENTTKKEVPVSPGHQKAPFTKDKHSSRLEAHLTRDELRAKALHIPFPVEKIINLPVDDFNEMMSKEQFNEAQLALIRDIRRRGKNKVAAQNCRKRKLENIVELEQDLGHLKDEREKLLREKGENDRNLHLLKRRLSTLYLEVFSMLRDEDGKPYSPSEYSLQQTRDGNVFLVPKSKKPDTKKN

MDA-MB-231 = assay: Cytotoxicity against human MDA-MB-231 cells assessed as decrease in cell viability at 3.12 to 100 uM after 24 hrs by MTT assay; settings: mda-mb-231, 24 h
[2] = molecular target: T2, Nuclear factor erythroid 2-related factor 2 (Homo sapiens) (UniProt Q16236); assay: Activation of Nrf2 in human MDA-MB-231 cells assessed as upregulation of gamma-GCS protein expression after 16 hrs by immunoblot analysis
T2 sequence (whole entry): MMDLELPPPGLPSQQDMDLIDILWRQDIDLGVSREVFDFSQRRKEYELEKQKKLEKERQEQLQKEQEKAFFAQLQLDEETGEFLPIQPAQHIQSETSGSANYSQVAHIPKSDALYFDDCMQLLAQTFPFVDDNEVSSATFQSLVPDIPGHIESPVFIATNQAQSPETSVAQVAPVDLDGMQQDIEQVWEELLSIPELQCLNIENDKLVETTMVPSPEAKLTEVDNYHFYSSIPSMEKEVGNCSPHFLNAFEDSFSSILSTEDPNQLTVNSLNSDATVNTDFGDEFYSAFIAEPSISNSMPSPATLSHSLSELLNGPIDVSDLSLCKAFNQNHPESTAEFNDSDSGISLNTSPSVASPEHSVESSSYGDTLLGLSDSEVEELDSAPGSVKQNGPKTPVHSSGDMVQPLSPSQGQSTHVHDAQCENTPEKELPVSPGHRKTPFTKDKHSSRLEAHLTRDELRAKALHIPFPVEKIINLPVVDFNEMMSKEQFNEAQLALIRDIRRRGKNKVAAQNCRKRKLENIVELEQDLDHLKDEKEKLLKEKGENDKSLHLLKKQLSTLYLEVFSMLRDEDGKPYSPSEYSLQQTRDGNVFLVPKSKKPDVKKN

[3] = molecular target: T2, Nuclear factor erythroid 2-related factor 2 (Homo sapiens); assay: Activation of Nrf2 in human BEAS2B cells assessed as upregulation of Nrf2 protein expression at 0.31 to 20 uM after 18 hrs by immunoblot analysis
[4] = molecular target: T2, Nuclear factor erythroid 2-related factor 2 (Homo sapiens); assay: Activation of Nrf2 in human BEAS2B cells assessed as upregulation of gamma-GCS protein expression at 0.31 to 20 uM after 18 hrs by immunoblot analysis
[5] = molecular target: T2, Nuclear factor erythroid 2-related factor 2 (Homo sapiens); assay: Activation of Nrf2 in human BEAS2B cells assessed as upregulation of NQO1 protein expression at 50 to 100 uM after 18 hrs by immunoblot analysis
[6] = molecular target: T2, Nuclear factor erythroid 2-related factor 2 (Homo sapiens); assay: Activation of Nrf2 in human BEAS2B cells assessed as upregulation of Nrf2 protein expression at 6.25 uM after 8 to 24 hrs by immunoblot analysis
[7] = molecular target: T2, Nuclear factor erythroid 2-related factor 2 (Homo sapiens); assay: Activation of Nrf2 in human BEAS2B cells assessed as upregulation of gamma-GCS protein expression at 6.25 uM after 8 to 24 hrs by immunoblot analysis
[8] = molecular target: T2, Nuclear factor erythroid 2-related factor 2 (Homo sapiens); assay: Activation of Nrf2 in human BEAS2B cells assessed as upregulation of Nrf2 protein expression at 3.12 to 25 uM after 12 hrs by immunoblot analysis
[9] = molecular target: T2, Nuclear factor erythroid 2-related factor 2 (Homo sapiens); assay: Activation of Nrf2 in human BEAS2B cells assessed as upregulation of gamma-GCS protein expression at 3.12 to 25 uM after 12 hrs by immunoblot analysis
[10] = molecular target: T1, Nuclear factor erythroid 2-related factor 2 (Mus musculus); assay: Activation of Nrf2 in mouse Heap1c1c7 cells assessed as induction of NAD(P)H:quinone reductase activity at 6.25 uM pretreated for 1 hr followed by co-treatment with PKC inhibitor Go6983 for 24 hrs
[11] = molecular target: T1, Nuclear factor erythroid 2-related factor 2 (Mus musculus); assay: Activation of Nrf2 in mouse Heap1c1c7 cells assessed as induction of NAD(P)H:quinone reductase activity at 6.25 uM pretreated for 1 hr followed by co-treatment with PI3K inhibitor wortmannin for 24 hrs
[12] = molecular target: T1, Nuclear factor erythroid 2-related factor 2 (Mus musculus); assay: Activation of Nrf2 in mouse Heap1c1c7 cells assessed as induction of NAD(P)H:quinone reductase activity at 6.25 uM pretreated for 1 hr followed by co-treatment with MEK1/2 inhibitor Uo126 for 24 hrs
[13] = molecular target: T2, Nuclear factor erythroid 2-related factor 2 (Homo sapiens); assay: Activation of Nrf2 in human BEAS2B cells assessed as upregulation of Nrf2 protein expression at 6.25 uM pretreated for 1 hr followed by co-treatment with PKC inhibitor Go6983 for 18 hrs by immunoblot analysis
[14] = molecular target: T2, Nuclear factor erythroid 2-related factor 2 (Homo sapiens); assay: Activation of Nrf2 in human BEAS2B cells assessed as upregulation of NQO1 protein expression at 6.25 uM pretreated for 1 hr followed by co-treatment with PI3K inhibitor LY294002 for 18 hrs by immunoblot analysis
[15] = molecular target: T2, Nuclear factor erythroid 2-related factor 2 (Homo sapiens); assay: Activation of Nrf2 in human BEAS2B cells assessed as upregulation of NQO1 protein expression at 6.25 uM pretreated for 1 hr followed by co-treatment with p38 MAPK inhibitor SB203580 for 18 hrs by immunoblot analysis
[16] = molecular target: T2, Nuclear factor erythroid 2-related factor 2 (Homo sapiens); assay: Activation of Nrf2 in human BEAS2B cells assessed as upregulation of NQO1 protein expression at 6.25 uM pretreated for 1 hr followed by co-treatment with MEK1/2 inhibitor PD98059 for 18 hrs by immunoblot analysis
[17] = molecular target: T2, Nuclear factor erythroid 2-related factor 2 (Homo sapiens); assay: Activation of Nrf2 in human BEAS2B cells assessed as upregulation of NQO1 protein expression at 6.25 uM pretreated for 1 hr followed by co-treatment with PKC inhibitor Ro-31-8220 for 18 hrs by immunoblot analysis
[18] = molecular target: T2, Nuclear factor erythroid 2-related factor 2 (Homo sapiens); assay: Activation of Nrf2 in human BEAS2B cells assessed as upregulation of NQO1 protein expression at 6.25 uM pretreated for 1 hr followed by co-treatment with PERK inhibitor GSK2606414 for 18 hrs by immunoblot analysis

SMILES: COc1ccc(-c2coc3cc(OC)cc(O)c3c2=O)cc1 [4',7-DIMETHOXY-5-HYDROXYGENISTEIN]
- fold change (FC) [1]: 2.08
- Activity (MDA-MB-231): Non-Toxic
- Activity [2]: Dose-dependent effect
- Activity [3]: Dose-dependent effect
- Activity [4]: Dose-dependent effect
- Activity [5]: inactive
- Activity [6]: Active
- Activity [7]: Active
- Activity [8]: Active
- Activity [9]: Active
- Activity [10]: inactive
- Activity [11]: Active
- Activity [12]: Active
- Activity [13]: inactive
- Activity [14]: inactive
- Activity [15]: inactive
- Activity [16]: inactive
- Activity [17]: inactive
- Activity [18]: inactive
